Key:
PylRS/tRNACUA pair [1] = experiment: Site-specific incorporation into sfGFP150TAG expressed in E. coli; format: cell-based, Methanosarcina barkeri; settings: SfGFP gene with amber codon at position 150, E. coli, PylRS/tRNACUA pair
Protocol: FIG. 2A: The PylRS/RNACUA pair directs efficient, site-specific incorporation of 3 into sfGFP bearing an amber stop codon at position 150.
Expression and purification of sfGFP-3 from E. coli Electrocompetent E. coli DH10B cells were co-transformed with pBK-MbPylRS and psfGFP150TAG PyIT^14, 26. Transformed cells were recovered in S.O.B. (1 mL, supplemented with 0.2% glucose) for 1 h at 37° C. and used to inoculate LB containing 50 μg/mL kanamycin and 25 μg/mL tetracycline (LB-KT). The cells were incubated with shaking overnight at 37° C., 250 r.p.m. 1 mL of overnight culture was used to inoculate 100 mL of LB-KT½, the day culture was then incubated (37° C., 250 r.p.m). At O.D.600˜0.3, the culture was divided equally and supplemented with either 3 (1 mM) or H2O (500 μL) and incubated further (37° C., 250 r.p.m). At O.D.600˜0.6 protein expression was induced by the addition of arabinose (0.2%), after 4 h, the cells were harvested by centrifugation (4000 r.p.m, 20 min) and the pellet frozen until further use.
The frozen bacterial pellet was thawed on ice and resuspended in 2.5 mL lysis buffer (Bugbuster®, Novagen®, 50 μg/mL DNAse 1, Roche inhibitor cocktail and 20 mM imidazole). Cells were incubated (4° C., 30 minutes) then clarified by centrifugation (16000 g, 4° C., 30 minutes). The clarified lysates were transferred to fresh tubes and 100 μL Ni-NTA slurry added. The mixtures was incubated with agitation (4° C., 1 h) and then collected by centrifugation (1000 g, 4° C., 5 min). The beads were resuspended three times in 500 μL wash buffer (10 mM Tris-HCL, 40 mM imidazole, 200 mM NaCl, pH 8) and collected by centrifugation (1000 g, 4° C., 5 min). Finally, the beads were resuspended in 100 μL, elution buffer (10 mM Tris-HCL, 300 mM imidazole, 200 mM NaCl, pH 8), pelleted by centrifugation (1000 g, 4° C., 5 min) and the supernatant collected into fresh tubes. The elution was repeated three times with 100 μL of elution buffer. The purified proteins were analysed by 4-12% SDS-PAGE and LC-MS.

PylRS/tRNACUA pair [2] = biological target: PylRS/tRNACUA pair (Methanosarcina mazei, UniProt Q8PWY1); experiment: Dual luciferase reporter assay on ovary extract of flies fed amino acid; format: in vivo, D. melanogaster; design: expressed in transfected cells; host or cells: transgenic Drosophila melanogaster, ovaries (UAS-PylRS driven by nos-vp16-GAL4); settings: flies fed 10 mM amino acid
Sequence of PylRS/tRNACUA pair (Methanosarcina mazei, UniProt Q8PWY1) (Q8PWY1 whole entry, the tested form may be a part): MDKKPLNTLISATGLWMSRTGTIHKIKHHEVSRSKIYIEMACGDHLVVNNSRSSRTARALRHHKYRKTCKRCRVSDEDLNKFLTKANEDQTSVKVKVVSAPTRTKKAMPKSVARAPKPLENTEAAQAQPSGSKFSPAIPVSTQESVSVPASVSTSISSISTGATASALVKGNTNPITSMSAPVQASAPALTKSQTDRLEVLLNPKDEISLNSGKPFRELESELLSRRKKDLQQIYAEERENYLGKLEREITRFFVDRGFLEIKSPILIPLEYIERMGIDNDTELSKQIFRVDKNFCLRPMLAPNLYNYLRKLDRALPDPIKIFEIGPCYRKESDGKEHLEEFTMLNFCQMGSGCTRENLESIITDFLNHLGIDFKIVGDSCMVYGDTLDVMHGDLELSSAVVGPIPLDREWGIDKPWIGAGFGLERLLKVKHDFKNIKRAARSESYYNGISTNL
Protocol: Dual luciferase assay on ovary extract from 10 female flies expressing Triple-Rep-L in the presence or absence of 10 mM 1 or 10 mM 3. […] The error bars represent the standard deviation of 3 technical replicates from a single biological replicate. FIG. 10B: Site-specific incorporation of 3 (or 1) into GFP_TAG_mCherry-HA in flies expressing PylRS/PyltRNACUA. The full-length protein resulting from unnatural amino acid incorporation is detected by anti-HA western blot. FIG. 10C: Specific labelling of encoded 3 with tetrazine probes. Flies were fed with no amino acid, amino acid 1 (500 flies) or amino acid 3 (100 flies). […] The full-length protein containing the unnatural amino acid was immunoprecipitated from lysed ovaries with anti-GFP beads. The beads were labelled (4g, 4 μM, 200 μL, PBS, RT, 2 h) washed.
Transgenic lines were created by P element insertion using a Drosophila embryo injection service (BestGene Inc.). Lines were generated using the following plasmids: pFT58 (Ala), pFT60 (Ser), pFT62 (Leu) and pFT63 (Met). nos-Gal4-VP16 (Bloomington 4937) and MS1096-Gal4 (Bloomington 8860) were used as Gal4 drivers. All flies were grown at 25° C. on standard Iberian medium. Flies were fed unnatural amino acids by mixing dried yeast with the appropriate concentration of amino acid (usually 10 mM) diluted in dH2O to make a paste. Ovaries were prepared from females that were grown on Iberian fly food supplemented with a yeast paste with or without the amino acid for a minimum of 48 hours. For proteome labelling experiments transgenic male flies of constructs FT58, FT60, FT62 and FT63 were crossed with nos-vp16-GAL4 virgins to generate FT58/nos-vp16-GAL4, FT60/nos-vp16-GAL4, FT62/nos-vp16-GAL4 and FT63/nos-vp16-GAL4 respectively.
Ovaries from 10 females of Triple Rep-L flies recombined with nos-Gal4-VP16 fed 3, 1 or no amino acid were dissected in 100 μl 1× Passive lysis buffer and processed for luciferase assays as previously described^20.

With `CC(C)(C)OC(=O)NCCCC[C@H](N)C(=O)O` [amino acid 1, N^ε-[(tert-butoxy)carbonyl]-L-lysine, reference compound] the yield of protein (PylRS/tRNACUA pair [1]) was 4 mg per litre of culture and the “luciferase signal dependent on amino acid addition” value (PylRS/tRNACUA pair [2]) was “strong luciferase signal”.
